This is an account of results in paper PMC6057649, “Development of NanoLuc-PEST expressing Leishmania mexicana as a new drug discovery tool for axenic- and intramacrophage-based assays” (PLoS Neglected Tropical Diseases, 2018).

Where “and” joins values, the source holds several entries; their conditions need not be identical. Equal entries are not always repeated. Where two headings read alike, the source gives them in different places. Peptide text beside a SMILES is read from it. * marks the point of attachment. Cbz = O=C(OCc1ccccc1)*

The subject of data set [1] is wild-type L. mexicana axenic amastigotes. Description: Fluorescence-based (AlamarBlue) viability assay, parental axenic amastigotes. The conditions noted are these: Leishmania mexicana, 72 h.
Data set [2] relates to NanoLuc-PEST expressing L. mexicana axenic amastigotes. Briefly: Fluorescence-based (AlamarBlue) viability assay, NanoLuc-PEST axenic amastigotes. The conditions noted are these: Leishmania mexicana, 72 h. For orientation: The colour change of resazurin is a common sign of viable cells or microbes.
The test system of data set [3] is Leishmania spp. intramacrophage amastigotes. To be noted: value in brackets ref 55, read-out: Previous EC50, intramacrophage amastigotes; cited from earlier work.
The subject of data set [4] is NanoLuc-PEST expressing L. mexicana axenic amastigotes. Description: microbe, parasite or virus in culture. The class given is cell-based.
Data set [5] concerns L. mexicana NanoLuc-PEST intramacrophage amastigotes. Description: Bioluminescence-based intramacrophage assay in THP-1 infection model. The data set is classed as cell-based. To be noted: for EC50: read-out: EC50 against amastigotes, Intramacrophage; for EC90: read-out: EC90 against amastigotes, Intramacrophage.
For data set [6], the system named is HepG2. To be noted: ref MMV Pathogen Box website, cited from earlier work; for CC50: read-out: HepG2 CC50.
The test system of data set [7] is THP-1 cell line.
Data set [8] deals with L. donovani intramacrophage amastigotes. To be noted: cited from earlier work.
For data set [9], the system named is L. donovani axenic amastigotes. The conditions noted are these: cited from earlier work.
Data set [10] concerns MRC5. On the set-up: method as in MMV Pathogen Box website. The conditions noted are these: ref MMV Pathogen Box website; cited from earlier work.
Data set [11] deals with NanoLuc-PEST-expressing L. mexicana promastigotes and axenic amastigotes. Description: Cycloheximide and proteasome (MG-132) assays on luciferase signal. The data set is classed as cell-based. To be noted: 5 μM, 6 hours. As for the experimental part: Detection of NanoLuc and NanoLuc-PEST enzymes was performed using the lytic Nano-Glo Assay (Promega), according to the manufacturer’s instructions. Detection of PRE9 was performed using either the Firefly Luciferase Glow Assay (Pierce), or the Bright-Glow Assay (Promega). Bioluminescence was measured using the Promega GloMax Multi Detection System. All data was normalised by subtracting bioluminescence values for the untransformed, parental line, and all assays done in triplicate.
Cycloheximide assays were performed over 8 hours. Cells were seeded to a cell density of 5 x10^5 cells/well (100 μL/well). Cycloheximide (Sigma) was added to each well to a final concentration of 100 μM and incubated with cells for a range of time points between 0 and 8 hours. Bioluminescence was measured as described above, and the half-life of each luciferase was calculated by one phase decay non-linear regression (GraphPad Prism 6.0). Proteosome assays were performed using the method above with the addition of 5 μM MG-132 (Sigma) for 6 hours. Statistical significance was determined using a paired, two-tailed T-test (GraphPad Prism 6.0).

Data set [12] has as its system THP-1 cell line. Description: Macrophage toxicity assay (PrestoBlue). To be noted: read-out: THP1 EC50, PMA-differentiated THP-1 macrophages, 72 hours.
Data set [13] relates to L. mexicana axenic amastigotes. Also noted: method as in PMID 9087496. To be noted: L. mexicana axenic amastigotes ref 47; read-out: Previous EC50, axenic amastigotes; cited from earlier work.
In data set [14] the test system is L. mexicana intramacrophage amastigotes. Also noted: method as in PMID 14695832. The conditions noted are these: values in brackets ref 52, read-out: Previous EC50, intramacrophage amastigotes; cited from earlier work.
Where [15] appears, read: Leishmania mexicana, 72 h; read-out: EC50.
The mark [16] stands for this setting: Leishmania mexicana; 2 µM compound, 72 hours, relative to DMSO only control, n = 4; read-out: Relative Bioluminescence (%).
Where [17] appears, read: Leishmania mexicana; 10 µM compound, 72 hours, relative to DMSO only control, n = 4; read-out: Relative Bioluminescence (%).
Where [18] appears, read: Leishmania mexicana; read-out: EC90 against amastigotes, Axenic.
Where [19] appears, read: 2 µM compound, 72 hours, relative to DMSO only control, n = 4.
The mark [20] stands for this setting: 10 µM compound, 72 hours, relative to DMSO only control, n = 4.
Where [21] appears, read: hit compounds from the axenic amastigote screen, S3 Table; read-out: EC50, Axenic Amastigotes.
Where [22] appears, read: read-out: EC50 against amastigotes, Axenic.
Setting [23] is: read-out: EC90 against amastigotes, Axenic.
The mark [24] stands for this setting: Leishmania mexicana; hit compounds from the axenic amastigote screen, S3 Table; read-out: EC50, Axenic Amastigotes.
The mark [25] stands for this setting: Leishmania mexicana; read-out: EC50 against amastigotes, Axenic.
[26] abbreviates: THP-1 infection model, bioluminescence.
Where [27] appears, read: Leishmania mexicana, THP-1 infection model, bioluminescence.

As usually defined, the EC50 is the concentration that produces a half-maximal response. Usually EC90 stands for the concentration needed for an effect of 90%. `CCCCCCCCCCCCCCCCOP(=O)([O-])OCC[N+](C)(C)C` [Miltefosine, reference compound]: the EC50 is 1110 nM in data set [1]; 1990 nM in data set [2]; 15700 nM in [3]; 2190 nM in data set [4] (setting [15]); 1990 nM in data set [4] (Leishmania mexicana, read-out: EC50 against amastigotes, Axenic); 10900 nM in data set [5] (Leishmania mexicana, THP-1). Further, the viability at 2 µM in data set [4] (setting [16]) came out at 43%. Also, the viability at 10 µM in data set [4] (setting [17]) came out at 11.5%. The EC90 worked out at 19800 nM in [4] (setting [18]) and 37300 nM in [5] (Leishmania mexicana, THP-1).
As for `CCc1c(C)nc(-n2nc(C)cc2NC(=O)c2ccccc2SC)[nH]c1=O` [MMV676477], the CC50 in data set [6] was 1300 nM. The EC50 in [7] was over 50000 nM; in data set [4] (setting [21]), 70 nM; in [4] (setting [22]), 69 nM; in data set [5], 4780 nM. For the same molecule, the “Relative Bioluminescence (%)” value in data set [4] (setting [19]) is -0.98%; in data set [4] (setting [20]) it was -0.92%. Besides, the EC90 in data set [4] (setting [23]) stood at 168 nM; in data set [5], 6110 nM.
`C[C@]1(COc2ccc(N3CCC(Oc4ccc(OC(F)(F)F)cc4)CC3)cc2)Cn2cc([N+](=O)[O-])nc2O1` [MMV688262, Delamanid, reference compound]: the EC50 in [8] (value in brackets ref 54, read-out: Previous EC50, intramacrophage amastigotes) was 86.5 to 298 nM; in [4] (setting [24]) it was 30 nM; in [4] (setting [25]) it was 33 nM; in data set [9] (value in brackets ref 54, read-out: Previous EC50, axenic amastigotes), 5 nM; in data set [5] (Leishmania mexicana, THP-1), 1780 nM. Moreover, the CC50 in data set [6] is 72500 nM. Moreover, the viability at 2 µM in data set [4] (setting [16]) is -4.37%. The viability at 10 µM in data set [4] (setting [17]) was -2.71%. Besides, the EC90 in [4] (setting [18]) turned out to be 112 nM; in data set [5] (Leishmania mexicana, THP-1), 25100 nM.
With `COc1ccc(Oc2ccc([C@@H](C)N(C)c3ncc4c(N)nc(N)nc4n3)cc2)cc1` [MMV690102], the EC50 in [8] (value in brackets ref 49–51, read-out: Previous EC50, intramacrophage amastigotes) was 100 nM; in [4] (setting [22]), 60 nM; in data set [9] (value in brackets ref 49–51, read-out: Previous EC50, axenic amastigotes), 40 nM; in data set [5] (setting [26]) it was 107 nM. Also, the CC50 in [10] was 5400 nM. In addition, the “Relative Bioluminescence (%)” value in data set [4] (setting [19]) was -5.29%; in [4] (setting [20]) it was -1.34%. The results for the EC90 in [4] (setting [23]) and in data set [5] (setting [26]) were 123 nM and 160 nM, respectively.
As to `CC(C)C[C@@H](C=O)NC(=O)[C@H](CC(C)C)NC(=O)[C@H](CC(C)C)NC(=O)OCc1ccccc1` [MG-132] (Cbz-Leu-Leu-Leu-aldehyde), the “bioluminescence relative to the DMSO control” value in data set [11] is recorded as “statistically significant increase”.
For `O=C(Nc1ccc2c(c1)B(O)OC2)c1ccccc1C(F)(F)F` [MMV652003], in [10], the CC50 was over 32000 nM. Further, the “HepG2 CC20” value in data set [6] is 400 nM. The “Relative Bioluminescence (%)” value in [4] (setting [19]) is recorded as -1.53%; in data set [4] (setting [20]), -1.54%. The EC50 in [4] (setting [21]) came out at 70 nM; in [4] (setting [22]), 77 nM; in data set [5] (setting [26]), 3640 nM. The EC90 in [4] (setting [23]) is 104 nM; in [5] (setting [26]) it was 10700 nM.
With `Cc1ccc(NC(=O)c2nc[nH]c2C(=O)Nc2nc3ccccc3[nH]2)c(C)c1` [MMV011903], in data set [6], the CC50 was over 10000 nM. The “HepG2 CC20” value in data set [6] is 8400 nM. Moreover, the “Relative Bioluminescence (%)” value is given as -0.43% in [4] (setting [19]) and -1.14% in [4] (setting [20]). The EC50 was 180 nM in data set [4] (setting [21]), 189 nM in data set [4] (setting [22]), over 50000 nM in data set [12] and 2020 nM in data set [5] (setting [26]). Besides, the figures for the EC90 in [4] (setting [23]) and in [5] (setting [26]) were 320 nM and 2290 nM, respectively.
As for `CCN(CC)S(=O)(=O)c1ccc(C(=O)Nc2cc(C)nn2-c2nc(C)c(C)c(=O)[nH]2)cc1` [MMV595321], the EC50 in data set [8] (value in brackets ref 49, 53, read-out: Previous EC50, intramacrophage amastigotes) is 3160 nM; in [4] (setting [21]), 150 nM; in data set [4] (setting [22]), 153 nM; in data set [12], over 50000 nM; in data set [9] (value in brackets ref 49, 53, read-out: Previous EC50, axenic amastigotes) it was 501 nM; in [5] (setting [26]), 5300 nM. The “Relative Bioluminescence (%)” value is recorded as -4.54% in data set [4] (setting [19]) and -3.10% in data set [4] (setting [20]). In addition, the EC90 came to 357 nM in data set [4] (setting [23]) and 11200 nM in [5] (setting [26]).
For the molecule `C[C@@H]1[C@H](O)[C@@H](C)/C=C/C=C/C=C/C=C/C=C/C=C/C=C/[C@H](O[C@@H]2O[C@H](C)[C@@H](O)[C@H](N)[C@@H]2O)C[C@@H]2O[C@](O)(C[C@@H](O)C[C@@H](O)[C@H](O)CC[C@@H](O)C[C@@H](O)CC(=O)O[C@H]1C)C[C@H](O)[C@H]2C(=O)O` [Amphotericin B, reference compound], the EC50 was 270 nM in data set [2]; 200 nM in data set [4] (setting [15]); 200 to 270 nM in [4] (Leishmania mexicana; axenic amastigotes; span over parental and transgenic line, both bioluminescence- and fluorescence-based assays; read-out: EC50 values from the parental and transgenic line); 201 nM in data set [4] (setting [25]); 300 nM and 303 nM in [13]; 105 nM in data set [5] (Leishmania mexicana, THP-1). Further, the viability at 2 µM in [4] (setting [16]) was determined as 58.3%. The viability at 10 µM in [4] (setting [17]) was 48.4%. Moreover, the EC90 stood at 279 nM in [4] (setting [18]) and 185 nM in data set [5] (Leishmania mexicana, THP-1). The “decrease of bioluminescent signal” value in data set [5] was at least 99%.
Consider `CC(C)(C)[C@H]1CC[C@H](CC2=C(O)C(=O)c3ccccc3C2=O)CC1` [MMV689480, Buparvaquone, reference compound], for which the EC50 in [14] is 1250 nM and 1440 nM; in [4] (setting [24]), 2.2 nM; in data set [4] (setting [25]), 2 nM; in data set [5] (setting [27]), 394 nM. For the same molecule, in [4] (setting [16]), the viability at 2 µM is -0.24%. The viability at 10 µM in data set [4] (setting [17]) is 0.15%. In addition, the EC90 in [4] (setting [18]) was 11 nM; in data set [5] (setting [27]) it was 1260 nM.
